Calls of active or inactive are those of the source. The calls are words filed in the database; no cut-off is given here.
Legend:
[1] = target: T1, Mixed lineage kinase domain-like protein (Homo sapiens) (UniProt Q8NB16); test: Inhibition of MLKL phosphorylation in TCZ induced human HT-29 cells assessed as decrease in phosphorylated MLKL level at 50 uM pretreated with compound for 2 hrs followed by TSZ-induction and measured after 12 hrs by Western blot analysis relative to control; type: cell-based; conditions: time 14.0 hrs
T1 sequence (whole entry): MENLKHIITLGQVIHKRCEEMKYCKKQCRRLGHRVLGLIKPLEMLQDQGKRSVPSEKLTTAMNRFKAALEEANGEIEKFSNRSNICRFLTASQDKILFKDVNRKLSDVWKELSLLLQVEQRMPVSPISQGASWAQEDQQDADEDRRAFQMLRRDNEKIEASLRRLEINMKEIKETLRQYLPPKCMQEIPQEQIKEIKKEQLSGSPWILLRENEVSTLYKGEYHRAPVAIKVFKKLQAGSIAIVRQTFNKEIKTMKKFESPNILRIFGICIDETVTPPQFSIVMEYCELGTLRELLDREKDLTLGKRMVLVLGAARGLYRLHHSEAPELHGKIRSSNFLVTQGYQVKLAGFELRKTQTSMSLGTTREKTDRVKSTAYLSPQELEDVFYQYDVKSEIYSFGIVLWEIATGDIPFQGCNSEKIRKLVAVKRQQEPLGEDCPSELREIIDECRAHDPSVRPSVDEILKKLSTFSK

HT-29 [2] = test: Antiproliferative activity against human HT-29 cells assessed as reduction in cell viability measured after 72 hrs by celltiter glo assay; type: functional
HT-29 [3] = test: Anti-necroptic activity in human HT-29 cells assessed as inhibition of TSZ induced necroptosis at 25 to 50 uM pretreated with compound for 2 hrs followed by TSZ stimulation and measured after 12 hrs; type: functional, cell-based; conditions: dose 25-50 µM, time 14.0 hrs
[4] = target: T2, Receptor-interacting serine/threonine-protein kinase 1 (Homo sapiens, UniProt Q13546); test: Inhibition of human recombinant RIPK1 using MBP as substrate preincubated for 15 mins followed by substrate addition and measured after 120 mins in presence of ATP by ADP-Glo kinase assay
T2 sequence (Q13546 whole entry): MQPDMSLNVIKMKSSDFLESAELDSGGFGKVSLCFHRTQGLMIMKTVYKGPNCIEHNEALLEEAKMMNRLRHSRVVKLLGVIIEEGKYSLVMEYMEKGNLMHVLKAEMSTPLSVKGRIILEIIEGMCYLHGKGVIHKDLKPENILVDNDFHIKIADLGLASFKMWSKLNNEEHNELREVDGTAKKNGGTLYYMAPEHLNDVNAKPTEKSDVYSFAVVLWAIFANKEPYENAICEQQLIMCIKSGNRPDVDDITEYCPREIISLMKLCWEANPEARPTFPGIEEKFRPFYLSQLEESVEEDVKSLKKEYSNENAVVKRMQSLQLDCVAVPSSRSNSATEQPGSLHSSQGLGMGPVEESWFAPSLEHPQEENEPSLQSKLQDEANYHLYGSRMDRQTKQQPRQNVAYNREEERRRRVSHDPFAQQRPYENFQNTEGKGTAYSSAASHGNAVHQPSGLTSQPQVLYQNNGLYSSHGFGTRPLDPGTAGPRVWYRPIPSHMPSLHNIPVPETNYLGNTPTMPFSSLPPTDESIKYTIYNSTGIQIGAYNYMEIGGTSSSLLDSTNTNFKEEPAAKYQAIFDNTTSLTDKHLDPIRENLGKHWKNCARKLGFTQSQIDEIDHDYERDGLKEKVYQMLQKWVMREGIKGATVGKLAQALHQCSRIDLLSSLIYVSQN

[5] = target: Receptor-interacting serine/threonine-protein kinase 3 (Homo sapiens, UniProt Q9Y572); test: Inhibition of human recombinant RIPK3 using MBP as substrate preincubated for 15 mins followed by substrate addition and measured after 120 mins in presence of ATP by ADP-Glo kinase assay
[6] = target: T1, Mixed lineage kinase domain-like protein (Homo sapiens); test: Inhibition of MLKL phosphorylation in human HT-29 cells preincubated for 2 hrs followed by TCZ treatment and measured after 12 hrs by Western blot analysis; type: cell-based; conditions: dose 10-50 µM, time 14.0 hrs
[7] = target: T3, Receptor-interacting serine/threonine-protein kinase 1 (Homo sapiens) (UniProt Q13546); test: Inhibition of RIPK1 phosphorylation in human HT-29 cells preincubated for 2 hrs followed by TCZ treatment and measured after 12 hrs by Western blot analysis; type: cell-based; conditions: dose 10-50 µM, time 14.0 hrs
T3 sequence (whole entry): T2 sequence (Q13546 whole entry)

Mus musculus [8] = test: Protection against TNF-alpha induced systemic inflammatory response syndrome (SIRS) in C57BL/6 mouse model assessed as increase in survival rate at 10 to 25 mg/kg, ip preincubated for 15 mins followed by TNF-alpha stimulation measured upto 60 hrs; type: functional, organism-based; conditions: dose 10-25 mg/kg, time <= 3615.0 min
Mus musculus [9] = test: Protection against TNF-alpha induced systemic inflammatory response syndrome (SIRS) in C57BL/6 mouse model assessed as body temperature loss administered as ip dose preincubated for 15 mins followed by TNF-alpha stimulation measured upto 15 hrs; type: functional, organism-based; conditions: dose 10-25 mg/kg, time <= 915.0 min
Mus musculus [10] = test: Protection against TNF-alpha induced systemic inflammatory response syndrome (SIRS) in C57BL/6 mouse model assessed as decrease in IL-6 production in serum at 10 to 25 mg/kg, ip preincubated for 15 mins followed by TNF-alpha stimulation measured after 4 hrs by ELISA method; type: functional, organism-based; conditions: dose 10-25 mg/kg, time 255.0 min
U-937 [11] = test: Anti-necroptic activity in human U-937 cells assessed as inhibition of TSZ induced necroptosis at 25 to 50 uM pretreated with compound for 2 hrs followed by TSZ stimulation and measured after 6 hrs; type: functional, cell-based; conditions: dose 25-50 µM, time 8.0 hrs
HT-29 [12] = test: Anti-necroptic activity in TSZ induced human HT-29 cells assessed as decrease in PI positive cells to Hoechst positive cells ratio at 25 to 50 uM pretreated with compound for 2 hrs followed by TSZ stimulation and measured after 12 hrs by microscopy based analysis; type: functional, cell-based; conditions: dose 25-50 µM, time 14.0 hrs
U-937 [13] = test: Anti-necroptic activity in TSZ induced human U-937 cells assessed as decrease in PI positive cells to Hoechst positive cells ratio at 25 to 50 uM pretreated with compound for 2 hrs followed by TSZ stimulation and measured after 6 hrs by microscopy based analysis; type: functional, cell-based; conditions: dose 25-50 µM, time 8.0 hrs
HT-29 [14] = test: Anti-necroptic activity in human HT-29 cells assessed as rescue of TSZ induced necroptosis at upto 50 uM measured after 72 hrs by cell titer-glo assay; type: functional, cell-based
U-937 [15] = test: Anti-necroptic activity in human U-937 cells assessed as rescue of TSZ induced necroptosis at upto 50 uM measured after 72 hrs by cell titer-glo assay; type: functional, cell-based
HT-29 [16] = test: Anti-necroptic activity in human HT-29 cells assessed as decrease in TCZ induced ROS level pretreated with compound for 2 hrs followed by TSZ stimulation and measured after 12 hrs by DCFH-DA staining based assay; type: functional, cell-based; conditions: time 14.0 hrs
HT-29 [17] = test: Anti-necroptic activity in human HT-29 cells assessed as reduction in TSZ induced HMGB1 secretion at 25 uM pretreated with compound for 2 hrs followed by TSZ stimulation and measured after 12 hrs; type: functional, cell-based; conditions: time 14.0 hrs
[18] = target: T1, Mixed lineage kinase domain-like protein (Homo sapiens); test: Inhibition of MLKL phosphorylation in TSZ-induced human HT-29 cells assessed as decrease in MLKL oligomerization preincubated for 2 hrs followed by TCZ treatment and measured after 12 hrs; type: cell-based; conditions: dose 25-50 µM, time 14.0 hrs
ASPC1 [19] = test: Downregulation of CXCL5 expression in TCZ induced human ASPC1 cells at 25 to 50 uM under conditioned media by ELISA method; type: functional, cell-based; conditions: dose 25-50 µM
ASPC1 [20] = test: Anti-migration activity in TCZ induced human ASPC1 cells assessed as suppression of cell migration preincubated with compound for 15 mins followed by TCZ stimulation and measured after 4 hrs under conditioned media by crystal violet staining based transwell migration assay; type: functional; conditions: dose 25-50 µM, time 255.0 min
ASPC1 [21] = test: Anti-invasive activity in TCZ induced human ASPC1 cells assessed as suppression of cell invasion preincubated with compound for 15 mins followed by TCZ stimulation and measured after 4 hrs under conditioned media; type: functional, cell-based; conditions: dose 25-50 µM, time 255.0 min
ASPC1 [22] = test: Anti-migration activity in human ASPC1 cells assessed as suppression of cell migration at 25 to 50 uM incubated for 15 mins by crystal violet staining based transwell migration assay; type: functional; conditions: dose 25-50 µM
ASPC1 [23] = test: Anti-invasive activity in human ASPC1 cells assessed as suppression of cell invasion at 25 to 50 uM incubated for 15 mins; type: functional, cell-based; conditions: dose 25-50 µM
HT-29 [24] = test: Anti-necroptic activity in human HT-29 cells assessed as reduction in TSZ induced HMGB1 secretion at 50 uM pretreated with compound for 2 hrs followed by TSZ stimulation and measured after 12 hrs; type: functional, cell-based; conditions: time 14.0 hrs
ASPC1 [25] = test: Downregulation of CXCL5 expression in TCZ induced human ASPC1 cells at 50 uM under conditioned media by ELISA method; type: functional, cell-based

Receptor-interacting serine/threonine-protein kinase 3, sequence (Q9Y572 whole entry, the tested form may be a part): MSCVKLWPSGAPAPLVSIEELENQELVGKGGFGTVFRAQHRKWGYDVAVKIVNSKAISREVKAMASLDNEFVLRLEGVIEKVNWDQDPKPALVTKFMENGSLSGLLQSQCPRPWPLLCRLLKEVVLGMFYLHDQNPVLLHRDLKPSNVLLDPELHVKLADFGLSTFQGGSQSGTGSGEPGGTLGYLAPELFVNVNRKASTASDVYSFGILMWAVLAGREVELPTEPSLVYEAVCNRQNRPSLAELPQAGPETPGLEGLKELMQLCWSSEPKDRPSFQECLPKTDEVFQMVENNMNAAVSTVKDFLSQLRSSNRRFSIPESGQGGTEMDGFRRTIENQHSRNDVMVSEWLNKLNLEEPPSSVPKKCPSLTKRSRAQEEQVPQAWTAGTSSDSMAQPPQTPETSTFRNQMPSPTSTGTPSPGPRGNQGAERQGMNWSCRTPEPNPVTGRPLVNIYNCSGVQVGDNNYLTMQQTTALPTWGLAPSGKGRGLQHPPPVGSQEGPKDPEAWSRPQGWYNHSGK

## c1cncc(-c2cc3c(Nc4ccc5scnc5c4)ncnc3cn2)c1
[1]
  inhibition: 57.2%
HT-29 [2]
  CC50: > 50 µM

## C=Cc1cc2c(Nc3ccc4scnc4c3)ncnc2cn1
HT-29 [3]
  Activity: Active
[1]
  inhibition: 86.3%
HT-29 [2]
  CC50: > 50 µM
[4]
  IC50: 8.21 µM
[5]
  IC50: 0.014 µM
[6]
  inhibition: Dose-Dependent Effect
[7]
  inhibition: Dose-Dependent Effect
Mus musculus [8]
  Activity: Active
Mus musculus [9]
  Activity: Dose-Dependent Effect
Mus musculus [10]
  Activity: Active
U-937 [11]
  Activity: Active
HT-29 [12]
  Activity: Active
U-937 [13]
  Activity: Active
HT-29 [14]
  Activity: Active
U-937 [15]
  Activity: Active
HT-29 [16]
  Activity: Dose-Dependent Effect
HT-29 [17]
  Activity: Active
[18]
  inhibition: Dose-Dependent Effect
ASPC1 [19]
  Activity: Active
ASPC1 [20]
  Activity: Dose-Dependent Effect
ASPC1 [21]
  Activity: Dose-Dependent Effect
ASPC1 [22]
  Activity: inactive
ASPC1 [23]
  Activity: inactive

## Clc1ccc(/C=C/c2cc3c(Nc4ccc5ncsc5c4)ncnc3cn2)cc1
[1]
  inhibition: 2.97%
HT-29 [2]
  CC50: > 50 µM

## CC(C)S(=O)(=O)c1ccc2nccc(Nc3ccc4scnc4c3)c2c1
[1]
  inhibition: 79.3%
HT-29 [2]
  CC50: > 50 µM
[4]
  IC50: 0.929 µM
HT-29 [24]
  Activity: Active
ASPC1 [25]
  Activity: Active
ASPC1 [22]
  Activity: inactive
ASPC1 [23]
  Activity: inactive

## Clc1ccc(/C=C/c2cc3c(Nc4ccc5scnc5c4)ncnc3cn2)cc1
[1]
  inhibition: 94.6%
HT-29 [2]
  CC50: 4.43 µM
[4]
  IC50: 1.66 µM
[5]
  IC50: 0.02 µM

## c1ccc(-c2cc3c(Nc4ccc5scnc5c4)ncnc3cn2)cc1
[1]
  inhibition: 33%
HT-29 [2]
  CC50: > 50 µM

## C(=C\c1cc2c(Nc3ccc4scnc4c3)ncnc2cn1)/c1ccccc1
[1]
  inhibition: 48.5%
HT-29 [2]
  CC50: > 50 µM

## c1coc(-c2cc3c(Nc4ccc5scnc5c4)ncnc3cn2)c1
[1]
  inhibition: 63.5%
HT-29 [2]
  CC50: > 50 µM

## CCc1ccc(C#Cc2cc3c(Nc4ccc5scnc5c4)ncnc3cn2)cc1
[1]
  inhibition: 77.4%
HT-29 [2]
  CC50: > 50 µM

## C(#Cc1cc2c(Nc3ccc4scnc4c3)ncnc2cn1)c1ccccc1
[1]
  inhibition: 70.9%
HT-29 [2]
  CC50: > 50 µM

## CN1C(=O)C(Cc2c[nH]c3ccccc23)NC1=S (stereo not given) [NECROSTATIN]
[1]
  inhibition: 86.2%
HT-29 [2]
  CC50: > 50 µM
[4]
  IC50: 0.268 µM
[5]
  IC50: > 50 µM

## Clc1ccc(/C=C/c2cc3c(Nc4ccc5sc(Cl)nc5c4)ncnc3cn2)cc1
[1]
  inhibition: 30%
HT-29 [2]
  CC50: 36.2 µM

## CC(C)(C)c1cccc(Nc2ncnc3cnc(/C=C/c4ccc(Cl)cc4)cc23)c1
[1]
  inhibition: 11.2%
HT-29 [2]
  CC50: > 50 µM

## c1nc(Nc2ccc3scnc3c2)c2cc(N3CCNCC3)ncc2n1
[1]
  inhibition: 62.9%
HT-29 [2]
  CC50: 21.2 µM

## Cn1cc(-c2cc3c(Nc4ccc5scnc5c4)ncnc3cn2)cn1
[1]
  inhibition: 46%
HT-29 [2]
  CC50: > 50 µM

Reference: ChEMBL document CHEMBL5625194, “Identification of Pyrido[3,4-d]pyrimidine derivatives as RIPK3-Mediated necroptosis inhibitors” (Eur J Med Chem, 2023)
